Active and inactive are the calls of the source.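 The calls were made as follows: active = mean EC50 from three replicate curves at or below a set limit; inactive = mean EC50 above a set limit.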
Target: Muscarinic acetylcholine receptor M1 (Rattus norvegicus) (UniProt P08482)
Assay: structure-activity potentiation of ACh at M1 – cell-based, calcium mobilization, CHO-K1, SAR follow-up (AID 2651)
Settings: CHO-K1 rat M1, calcium Fluo-4, ACh EC20 potentiation

Chain of Muscarinic acetylcholine receptor M1 (Rattus norvegicus) (P08482 whole entry, looked up): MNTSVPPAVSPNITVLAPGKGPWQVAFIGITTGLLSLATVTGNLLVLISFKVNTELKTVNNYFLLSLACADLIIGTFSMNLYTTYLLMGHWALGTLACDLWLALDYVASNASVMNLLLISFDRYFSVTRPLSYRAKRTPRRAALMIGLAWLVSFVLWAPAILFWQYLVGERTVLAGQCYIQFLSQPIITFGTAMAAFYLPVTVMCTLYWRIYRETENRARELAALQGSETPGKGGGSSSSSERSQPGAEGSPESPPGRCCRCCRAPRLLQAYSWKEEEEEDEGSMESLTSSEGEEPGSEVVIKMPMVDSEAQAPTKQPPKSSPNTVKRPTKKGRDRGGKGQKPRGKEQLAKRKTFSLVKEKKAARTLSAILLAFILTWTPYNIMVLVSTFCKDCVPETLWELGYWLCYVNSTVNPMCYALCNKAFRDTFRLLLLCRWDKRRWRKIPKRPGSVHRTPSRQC

SMILES | EC50
Cc1cc(NC(=O)CS(=O)(=O)c2cn(Cc3ccc(F)c(-c4ccn[nH]4)c3)c3ccccc23)no1 | > 30 µM (inactive)
Cc1cc(NC(=O)CS(=O)(=O)c2cn(Cc3cccc(C(F)(F)F)c3)c3ccccc23)no1 | > 30 µM (inactive)
Cc1cc(NC(=O)CS(=O)(=O)c2cn(Cc3cccc(-c4ccccc4)c3)c3ccccc23)no1 | > 30 µM (inactive)
Cc1cc(NC(=O)CS(=O)(=O)c2cn(Cc3ccc(F)c(Cl)c3)c3ccccc23)no1 | > 30 µM (inactive)
Cc1cc(NC(=O)CS(=O)(=O)c2cn(Cc3ccc(Cl)c(Cl)c3)c3ccccc23)no1 | > 30 µM (inactive)

— PubChem BioAssay AID2651 (Vanderbilt High Throughput Screening Facility, 2010)
